Assay results from the NIST ThermoML archive (doi:10.1016/j.jct.2018.02.022).
Several values for one entry are separate records, joined by “and”; a condition that tells them apart may be missing. Equal values may be shown once.

Test: xn = mol fraction of the nth substance listed
Conditions: 92.3 kPa, Liquid; for viscosity: Concentric cylinders viscometry; for speed of sound: Frequency=3 MHz, Single path-length method; for mass density: Vibrating tube method

CCO [ethanol] + O
Conditions | mass density, 303.15 K | mass density, 308.15 K | speed of sound, 303.15 K [m/s] | speed of sound, 308.15 K [m/s] | viscosity, 303.15 K [mPa·s] | viscosity, 308.15 K [mPa·s]
x1 = 0.0024 | 994.464 kg/m3 | 992.863 kg/m3 | 1513.4 | 1523.3 | – | –
x1 = 0.0201 | 986.86 kg/m3 | 985.15 kg/m3 | – | – | 0.9816 | 0.8821
x1 = 0.0202 | 986.01 kg/m3 | 984.706 kg/m3 | 1541.3 | 1548.3 | – | –
x1 = 0.0295 | 983.11 kg/m3 | 981.361 kg/m3 | 1555 | 1560.3 | – | –
x1 = 0.0366 | 980.577 kg/m3 | 978.735 kg/m3 | 1564.9 | 1568.9 | – | –
x1 = 0.0408 | 978.54 kg/m3 | 976.58 kg/m3 | – | – | 1.162 | 1.006
x1 = 0.0497 | 976.06 kg/m3 | 973.32 kg/m3 | – | – | 1.223 | 1.073
x1 = 0.0513 | 975.532 kg/m3 | 973.534 kg/m3 | 1583.5 | 1584.5 | – | –
x1 = 0.06 | 971.89 kg/m3 and 972.787 kg/m3 | 970.651 kg/m3 and 969.36 kg/m3 | 1592.4 | 1591.8 | 1.323 | 1.158
x1 = 0.0707 | 969.513 kg/m3 | 967.196 kg/m3 | 1601.4 | 1598.7 | – | –
x1 = 0.0796 | 966.81 kg/m3 | 964.08 kg/m3 | – | – | 1.49 | 1.284
x1 = 0.0801 | 966.689 kg/m3 | 964.224 kg/m3 | 1607 | 1602.7 | – | –
x1 = 0.0904 | 963.577 kg/m3 | 960.944 kg/m3 | 1610.8 | 1604.7 | – | –
x1 = 0.0997 | 960.797 kg/m3 | 958.013 kg/m3 | 1611.9 | 1604.4 | – | –
x1 = 0.1004 | 958.69 kg/m3 | 955.87 kg/m3 | – | – | 1.656 | 1.43
x1 = 0.1294 | 951.878 kg/m3 | 948.682 kg/m3 | 1602.7 | 1592.3 | – | –
x1 = 0.1497 | 945.612 kg/m3 | 942.174 kg/m3 | 1588.3 | 1576.5 | – | –
x1 = 0.1499 | 945.56 kg/m3 | 942.15 kg/m3 | – | – | 1.88 | 1.591
x1 = 0.1984 | 928.77 kg/m3 | 925.04 kg/m3 | – | – | 1.994 | 1.696
x1 = 0.2008 | 929.658 kg/m3 | 925.836 kg/m3 | 1540.8 | 1527.8 | – | –
x1 = 0.2499 | 915.3 kg/m3 | 911.28 kg/m3 | – | – | 2.048 | 1.719
x1 = 0.2503 | 914.742 kg/m3 | 910.712 kg/m3 | 1493.5 | 1480 | – | –
x1 = 0.2998 | 900.761 kg/m3 | 896.603 kg/m3 | 1450.6 | 1436.6 | – | –
x1 = 0.3016 | 900.76 kg/m3 | 896.6 kg/m3 | – | – | 1.982 | 1.697
x1 = 0.3499 | 888.09 kg/m3 | 883.84 kg/m3 | – | – | 1.934 | 1.664
x1 = 0.3507 | 887.521 kg/m3 | 883.273 kg/m3 | 1411.8 | 1397.3 | – | –
x1 = 0.399 | 876.09 kg/m3 | 871.78 kg/m3 | – | – | 1.863 | 1.617
x1 = 0.3992 | 875.988 kg/m3 | 871.678 kg/m3 | 1379.4 | 1364.6 | – | –
x1 = 0.4495 | 865.03 kg/m3 | 860.66 kg/m3 | – | – | 1.783 | 1.55
x1 = 0.4514 | 864.712 kg/m3 | 860.353 kg/m3 | 1348.7 | 1333.4 | – | –
x1 = 0.4989 | 855.7 kg/m3 | 851.3 kg/m3 | – | – | 1.697 | 1.482
x1 = 0.5002 | 854.622 kg/m3 | 850.223 kg/m3 | 1322.3 | 1306.7 | – | –
x1 = 0.5494 | 845.433 kg/m3 | 841.009 kg/m3 | 1298.6 | 1282.7 | – | –
x1 = 0.5495 | 846.35 kg/m3 | 841.93 kg/m3 | – | – | 1.636 | 1.437
x1 = 0.6018 | 836.274 kg/m3 | 831.83 kg/m3 | 1275.2 | 1259 | – | –
x1 = 0.6067 | 835.6 kg/m3 | 831.06 kg/m3 | – | – | 1.528 | 1.347
x1 = 0.6503 | 828.55 kg/m3 and 828.435 kg/m3 | 823.98 kg/m3 and 824.09 kg/m3 | 1255.3 | 1238.8 | 1.46 | 1.292
x1 = 0.6956 | 821.65 kg/m3 | 817.19 kg/m3 | – | – | 1.388 | 1.229
x1 = 0.7006 | 820.66 kg/m3 | 816.2 kg/m3 | 1235.5 | 1218.8 | – | –
x1 = 0.7355 | 815.498 kg/m3 | 811.052 kg/m3 | 1222.2 | 1206.3 | – | –
x1 = 0.75 | 813.63 kg/m3 | 809.16 kg/m3 | – | – | 1.315 | 1.171
x1 = 0.7843 | 809.09 kg/m3 | 804.63 kg/m3 | – | – | 1.272 | 1.135
x1 = 0.7965 | 807.074 kg/m3 | 802.628 kg/m3 | 1199.9 | 1183 | – | –
x1 = 0.8433 | 800.833 kg/m3 | 796.401 kg/m3 | 1183.1 | 1166.1 | – | –
x1 = 0.8475 | 801.24 kg/m3 | 796.81 kg/m3 | – | – | 1.201 | 1.077
x1 = 0.8864 | 795.58 kg/m3 | 791.17 kg/m3 | – | – | 1.141 | 1.027
x1 = 0.892 | 794.442 kg/m3 | 790.037 kg/m3 | 1165.4 | 1148.7 | – | –
x1 = 0.9093 | 792.256 kg/m3 | 787.861 kg/m3 | 1159.2 | 1142.6 | – | –
x1 = 0.9207 | 790.841 kg/m3 | 786.448 kg/m3 | 1155.2 | 1138.3 | – | –
x1 = 0.929 | 789.85 kg/m3 | 785.46 kg/m3 | – | – | 1.086 | 0.9821
x1 = 0.9307 | 789.562 kg/m3 | 785.175 kg/m3 | 1151.5 | 1134.6 | – | –
x1 = 0.9398 | 788.477 kg/m3 | 784.096 kg/m3 | 1148.3 | 1131.4 | – | –
x1 = 0.9483 | 787.394 kg/m3 | 783.019 kg/m3 | 1145.2 | 1128.4 | – | –
x1 = 0.9603 | 785.958 kg/m3 | 781.59 kg/m3 | 1141.1 | 1124.2 | – | –
x1 = 0.9702 | 784.743 kg/m3 | 780.379 kg/m3 | 1137.5 | 1120.6 | – | –
x1 = 0.9801 | 783.417 kg/m3 | 779.061 kg/m3 | 1134.3 | 1117.5 | – | –
x1 = 0.9895 | 782.456 kg/m3 | 778.103 kg/m3 | 1130.8 | 1114 | – | –
x1 = 1 | 780.941 kg/m3 | 776.592 kg/m3 | 1126.4 | 1109.6 | 0.992 | 0.9039
